Like-named read-outs stand apart in the source and are kept apart here.
Molecular target: human NaV 1.8 (Homo sapiens, UniProt Q9Y5Y9)
Test: E-VIPR assay detecting and measuring NaV inhibition properties
Assay type: cell-based
Conditions: HEK cells expressing truncated human NaV 1.8
How it was run: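 Membrane potential was followed by coumarin/oxonol FRET during electrical field stimulation of matrigel-seeded HEK cells carrying truncated human NaV1.8 plus KIR2.1. Dosing used 11 points, 3-fold steps, top 300 nM final, 0.625% DMSO, with or without 25% human serum.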

[1] = no human serum, read-out: IC50 in the E-VIPR Assay

Sequence of human NaV 1.8 (Q9Y5Y9 126-399 limits assumed): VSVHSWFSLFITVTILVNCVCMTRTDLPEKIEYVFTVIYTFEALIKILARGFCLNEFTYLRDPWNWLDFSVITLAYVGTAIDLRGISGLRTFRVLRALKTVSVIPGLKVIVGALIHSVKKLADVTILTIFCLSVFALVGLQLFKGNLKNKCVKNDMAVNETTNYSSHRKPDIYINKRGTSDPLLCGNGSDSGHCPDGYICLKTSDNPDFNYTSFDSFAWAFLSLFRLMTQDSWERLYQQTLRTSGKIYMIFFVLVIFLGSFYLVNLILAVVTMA
Sequence of human NaV 1.8 (Q9Y5Y9 660-890 limits assumed): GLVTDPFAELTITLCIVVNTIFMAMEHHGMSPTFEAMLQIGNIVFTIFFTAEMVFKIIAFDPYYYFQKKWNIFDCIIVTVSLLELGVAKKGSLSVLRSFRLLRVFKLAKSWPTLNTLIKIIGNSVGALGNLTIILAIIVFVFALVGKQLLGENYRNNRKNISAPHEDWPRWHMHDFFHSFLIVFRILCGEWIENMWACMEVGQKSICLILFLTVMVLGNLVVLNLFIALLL
Sequence of human NaV 1.8 (Q9Y5Y9 1148-1722 limits assumed): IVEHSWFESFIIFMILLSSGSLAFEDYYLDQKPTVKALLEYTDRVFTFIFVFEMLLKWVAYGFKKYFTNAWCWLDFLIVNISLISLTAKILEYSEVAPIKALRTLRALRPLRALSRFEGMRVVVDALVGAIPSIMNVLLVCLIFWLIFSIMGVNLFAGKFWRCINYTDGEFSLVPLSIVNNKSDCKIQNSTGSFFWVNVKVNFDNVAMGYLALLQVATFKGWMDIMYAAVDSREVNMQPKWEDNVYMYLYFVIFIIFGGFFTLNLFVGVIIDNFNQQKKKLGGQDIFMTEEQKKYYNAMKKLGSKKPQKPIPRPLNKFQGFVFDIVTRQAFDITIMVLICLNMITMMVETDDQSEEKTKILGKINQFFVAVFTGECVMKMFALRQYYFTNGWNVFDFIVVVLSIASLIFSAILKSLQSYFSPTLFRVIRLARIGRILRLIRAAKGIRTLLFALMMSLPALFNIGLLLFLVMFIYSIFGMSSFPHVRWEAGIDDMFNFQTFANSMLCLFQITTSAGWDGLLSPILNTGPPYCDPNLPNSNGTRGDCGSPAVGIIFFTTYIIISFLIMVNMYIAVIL

Row | Compound | IC50 [1] [nM] | IC50 (in the presence of human serum (compound numbers followed by *), read-out: IC50 in the E-VIPR Assay, performed in the presence of human serum) [nM]
1 | COc1c([C@H]2[C@H](C(=O)Nc3cnc4c(c3)OCC4O)O[C@@](C)(C(F)(F)F)[C@H]2C)ccc(F)c1F (single isomer, unassigned) [Compound 408, rel-(2R*,3S*,4S*,5R*)-3-(3,4-difluoro-2-methoxyphenyl)-N-(3-hydroxy-2,3-dihydrofuro[3,2-b]pyridin-6-yl)-4,5-dimethyl-5-(trifluoromethyl)-tetrahydrofuran-2-carboxamide] | 10 to 100 | 
2 | COc1c([C@H]2[C@H](C(=O)Nc3cnc4c(c3)OCC4O)O[C@@](C)(C(F)(F)F)[C@H]2C)ccc(F)c1F (single isomer, unassigned) [Compound 409, rel-(2R*,3S*,4S*,5R*)-3-(3,4-difluoro-2-methoxyphenyl)-N-(3-hydroxy-2,3-dihydrofuro[3,2-b]pyridin-6-yl)-4,5-dimethyl-5-(trifluoromethyl)-tetrahydrofuran-2-carboxamide] | 100 to 1000 | 
3 | COCCNC(COC)c1ccc(NC(=O)[C@@H]2O[C@@](C)(C(F)(F)F)[C@@H](C)[C@H]2c2ccc(F)c(F)c2OC)cn1 (single isomer, unassigned) [Compound 417, rel-(2R*,3S*,4S*,5R*)-3-(3,4-difluoro-2-methoxyphenyl)-N-(6-(2-methoxy-1-((2-methoxyethyl)amino)-ethyl)pyridin-3-yl)-4,5-dimethyl-5-(trifluoromethyl)-tetrahydrofuran-2-carboxamide] | 10 to 100 | 
4 | CNC(COC)c1cc(NC(=O)[C@@H]2O[C@@](C)(C(F)(F)F)[C@@H](C)[C@H]2c2ccc(F)c(F)c2OC)c(F)cn1 (single isomer, unassigned) [Compound 418, rel-(2R*,3S*,4S*,5R*)-3-(3,4-difluoro-2-methoxyphenyl)-N-(5-fluoro-2-(2-methoxy-1-(methylamino)ethyl)-pyridin-4-yl)-4,5-dimethyl-5-(trifluoromethyl)-tetrahydrofuran-2-carboxamide] | < 10 | 
5 | COCC(N)c1cc(NC(=O)[C@@H]2O[C@@](C)(C(F)(F)F)[C@@H](C)[C@H]2c2ccc(F)c(F)c2OC)c(F)cn1 (single isomer, unassigned) [Compound 422, rel-(2R*,3S*,4S*,5R*)-N-(2-(1-amino-2-methoxyethyl)-5-fluoropyridin-4-yl)-3-(3,4-difluoro-2-methoxyphenyl)-4,5-dimethyl-5-(trifluoromethyl)-tetrahydrofuran-2-carboxamide] | 10 to 100 | 
6 | COCC(N)c1cc(NC(=O)[C@@H]2O[C@@](C)(C(F)(F)F)[C@@H](C)[C@H]2c2ccc(F)c(F)c2OC)c(F)cn1 (single isomer, unassigned) [Compound 423, rel-(2R*,3S*,4S*,5R*)-N-(2-(1-amino-2-methoxyethyl)-5-fluoropyridin-4-yl)-3-(3,4-difluoro-2-methoxyphenyl)-4,5-dimethyl-5-(trifluoromethyl)-tetrahydrofuran-2-carboxamide] | < 10 | 
7 | COc1c([C@H]2[C@H](C(=O)Nc3cc(C(N)C(C)(C)O)ncc3F)O[C@@](C)(C(F)(F)F)[C@H]2C)ccc(F)c1F (single isomer, unassigned) [Compound 428, rel-(2R*,3S*,4S*,5R*)-N-(2-(1-amino-2-hydroxy-2-methylpropyl)-5-fluoropyridin-4-yl)-3-(3,4-difluoro-2-methoxyphenyl)-4,5-dimethyl-5-(trifluoromethyl)-tetrahydrofuran-2-carboxamide] | < 10 | 
8 | C[C@@H]1[C@H](c2ccc(F)c(F)c2OC(F)F)[C@@H](C(=O)Nc2ccc(CCO)nc2)O[C@]1(C)C(F)(F)F (single isomer, unassigned) [Compound 459] | ≥ 1000 | 
9 | C[C@H]1[C@@H](c2ccc(F)c(F)c2OC(F)F)[C@H](C(=O)Nc2ccc(CCO)nc2)O[C@@]1(C)C(F)(F)F (single isomer, unassigned) [Compound 460] | 10 to 100 | 
10 | C[C@@H]1[C@H](c2ccc(F)c(F)c2OC(F)F)[C@@H](C(=O)Nc2ccc(CC(C)(C)O)nc2)O[C@]1(C)C(F)(F)F (single isomer, unassigned) [Compound 461] | ≥ 1000 | 

Other lines, results leading:

Row | IC50 [1] [nM] | IC50 (in the presence of human serum (compound numbers followed by *), read-out: IC50 in the E-VIPR Assay, performed in the presence of human serum) [nM] | Compound
11 | < 10 |  | CNC(COC)c1cc(NC(=O)[C@@H]2O[C@@](C)(C(F)(F)F)[C@@H](C)[C@H]2c2ccc(F)c(F)c2OC)ccn1 (single isomer, unassigned) [Compound 412, rel-(2R*,3S*,4S*,5R*)-3-(3,4-difluoro-2-methoxyphenyl)-N-(2-(2-methoxy-1-(methylamino)ethyl)-pyridin-4-yl)-4,5-dimethyl-5-(trifluoromethyl)-tetrahydrofuran-2-carboxamide]
12 | 100 to 1000 |  | CNC(COC)c1ccc(NC(=O)[C@@H]2O[C@@](C)(C(F)(F)F)[C@@H](C)[C@H]2c2ccc(F)c(F)c2OC)cn1 (single isomer, unassigned) [Compound 414, rel-(2R*,3S*,4S*,5R*)-3-(3,4-difluoro-2-methoxyphenyl)-N-(6-(2-methoxy-1-(methylamino)ethyl)-pyridin-3-yl)-4,5-dimethyl-5-(trifluoromethyl)-tetrahydrofuran-2-carboxamide]
13 | ≥ 1000 |  | COCC(NC(C)C)c1ccc(NC(=O)[C@@H]2O[C@@](C)(C(F)(F)F)[C@@H](C)[C@H]2c2ccc(F)c(F)c2OC)cn1 (single isomer, unassigned) [Compound 420, rel-(2R*,3S*,4S*,5R*)-3-(3,4-difluoro-2-methoxyphenyl)-N-(6-(1-(isopropylamino)-2-methoxyethyl)pyridin-3-yl)-4,5-dimethyl-5-(trifluoromethyl)-tetrahydrofuran-2-carboxamide]
14 | 100 to 1000 |  | COCC(NC(C)C)c1ccc(NC(=O)[C@@H]2O[C@@](C)(C(F)(F)F)[C@@H](C)[C@H]2c2ccc(F)c(F)c2OC)cn1 (single isomer, unassigned) [Compound 421, rel-(2R*,3S*,4S*,5R*)-3-(3,4-difluoro-2-methoxyphenyl)-N-(6-(1-(isopropylamino)-2-methoxyethyl)pyridin-3-yl)-4,5-dimethyl-5-(trifluoromethyl)-tetrahydrofuran-2-carboxamide]
15 | < 10 |  | COCC(c1cc(NC(=O)[C@@H]2O[C@@](C)(C(F)(F)F)[C@@H](C)[C@H]2c2ccc(F)c(F)c2OC)ccn1)N(C)C (single isomer, unassigned) [Compound 424, rel-(2R*,3S*,4S*,5R*)-3-(3,4-difluoro-2-methoxyphenyl)-N-(2-(1-(dimethylamino)-2-methoxyethyl)pyridin-4-yl)-4,5-dimethyl-5-(trifluoromethyl)-tetrahydrofuran-2-carboxamide]
16 | 100 to 1000 |  | COCC(c1ccc(NC(=O)[C@@H]2O[C@@](C)(C(F)(F)F)[C@@H](C)[C@H]2c2ccc(F)c(F)c2OC)cn1)N(C)C (single isomer, unassigned) [Compound 426, rel-(2R*,3S*,4S*,5R*)-3-(3,4-difluoro-2-methoxyphenyl)-N-(6-(1-(dimethylamino)-2-methoxyethyl)pyridin-3-yl)-4,5-dimethyl-5-(trifluoromethyl)-tetrahydrofuran-2-carboxamide]
17 | 100 to 1000 |  | COc1c([C@H]2[C@H](C(=O)Nc3cnc4c(c3)CCC4O)O[C@@](C)(C(F)(F)F)[C@H]2C)ccc(F)c1F (single isomer, unassigned) [Compound 433, rel-(2R*,3S*,4S*,5R*)-3-(3,4-difluoro-2-methoxyphenyl)-N-(7-hydroxy-6,7-dihydro-5H-cyclopenta[b]pyridin-3-yl)-4,5-dimethyl-5-(trifluoromethyl)tetrahydrofuran-2-carboxamide]
18 | 100 to 1000 |  | COc1c([C@H]2[C@H](C(=O)Nc3cnc4c(c3)C(O)CC4)O[C@@](C)(C(F)(F)F)[C@H]2C)ccc(F)c1F (single isomer, unassigned) [Compound 434, rel-(2R*,3S*,4S*,5R*)-3-(3,4-difluoro-2-methoxyphenyl)-N-(5-hydroxy-6,7-dihydro-5H-cyclopenta[b]pyridin-3-yl)-4,5-dimethyl-5-(trifluoromethyl)tetrahydrofuran-2-carboxamide]
19 | 10 to 100 |  | COc1c([C@H]2[C@H](C(=O)Nc3ccc(C(F)CO)nc3)O[C@@](C)(C(F)(F)F)[C@H]2C)ccc(F)c1F (single isomer, unassigned) [Compound 438, rel-(2R*,3S*,4S*,5R*)-3-(3,4-difluoro-2-methoxyphenyl)-N-(6-(1-fluoro-2-hydroxyethyl)pyridin-3-yl)-4,5-dimethyl-5-(trifluoromethyl)tetrahydrofuran-2-carboxamide]
20 | < 10 |  | COc1c([C@H]2[C@H](C(=O)Nc3ccnc(C(F)CO)c3)O[C@@](C)(C(F)(F)F)[C@H]2C)ccc(F)c1F (single isomer, unassigned) [Compound 439, rel-(2R*,3S*,4S*,5R*)-3-(3,4-difluoro-2-methoxyphenyl)-N-(2-(1-fluoro-2-hydroxyethyl)pyridin-4-yl)-4,5-dimethyl-5-(trifluoromethyl)tetrahydrofuran-2-carboxamide]
21 | 100 to 1000 |  | CNS(=O)(=O)c1cc(NC(=O)C2OC(C)(C(F)(F)F)C(C)C2c2ccc(F)c(F)c2OC)ccn1 (single isomer, unassigned) [Compound 455, 3-(3,4-difluoro-2-methoxy-phenyl)-4,5-dimethyl-N-[2-(methylsulfamoyl)-4-pyridyl]-5-(trifluoromethyl)tetrahydrofuran-2-carboxamide]
22 | < 10 |  | CNS(=O)(=O)c1cc(NC(=O)C2OC(C)(C(F)(F)F)C(C)C2c2ccc(F)c(F)c2OC)ccn1 (single isomer, unassigned) [Compound 456, 3-(3,4-difluoro-2-methoxy-phenyl)-4,5-dimethyl-N-[2-(methylsulfamoyl)-4-pyridyl]-5-(trifluoromethyl)tetrahydrofuran-2-carboxamide]
23 |  | ≥ 1000 | C[C@@H]1[C@H](c2ccc(F)c(F)c2OC(F)F)[C@@H](C(=O)Nc2ccnc(CCO)c2)O[C@]1(C)C(F)(F)F (single isomer, unassigned) [Compound 457]
24 | < 10 |  | C[C@H]1[C@@H](c2ccc(F)c(F)c2OC(F)F)[C@H](C(=O)Nc2ccnc(CCO)c2)O[C@@]1(C)C(F)(F)F (single isomer, unassigned) [Compound 458]

Reference: patent US20240368135A1 (VERTEX PHARMACEUTICALS INCORPORATED, priority 2021, published 2024)
